Measured values as given in ChEMBL document CHEMBL3351825, “Polyoxypregnane steroids from the stems of Marsdenia tenacissima” (J Nat Prod, 2014).
pIC50: −log10 of the molar value. Activity calls are given as the source filed them. The rule behind the calls is not given here.

Tests used:
[1] = Reversal of P-gp-mediated resistance to doxorubicin in human SW620/AD300 cells assessed as reduction in doxorubin IC50 at 10 uM after 72 hrs by SRB assay; assay type: cell-based; details: SW620/AD300, 72 h
[2] = test system: NCI-H292; test: Cytotoxicity against human NCI-H292 cells after 72 hrs by SRB assay; assay type: functional, cell-based; details: NCI-H292, 72 h
[3] = Cytotoxicity against human H460 cells after 72 hrs by SRB assay; details: NCI-H460, 72 h
[4] = Cytotoxicity against human H460/Vbl cells after 72 hrs by SRB assay
[5] = test system: SW-620; test: cells; details: Homo sapiens, SW-620, 72 h
Description: Growth inhibition of human SW620 cells after 72 hrs by SRB assay

[6] = test system: SW-620; test: Ratio of IC50 for human SW620/AD300 cells to IC50 for human SW620 cells; assay type: functional
[7] = cells; details: Homo sapiens, SW620/AD300, 72 h
Description: Growth inhibition of human SW620/AD300 cells after 72 hrs by SRB assay

[8] = test system: NCI-H460; test: Induction of apoptosis in human NCI-H460/Vbl cells at 10 uM after 24 hrs using annexin V by flow cytometry; assay type: functional, cell-based
[9] = Reversal of P-gp-mediated resistance to cisplatin in human SW620/AD300 cells assessed as reduction in doxorubin IC50 at 10 uM after 72 hrs by SRB assay; assay type: cell-based; details: SW620/AD300, 72 h
[10] = target: T1, ATP-dependent translocase ABCB1 (Homo sapiens, UniProt P08183); test: Inhibition of P-gp in human SW620/AD300 cells assessed as reduction in rhodamine 123 efflux by flow cytometry; assay type: cell-based
T1 sequence (P08183 whole entry): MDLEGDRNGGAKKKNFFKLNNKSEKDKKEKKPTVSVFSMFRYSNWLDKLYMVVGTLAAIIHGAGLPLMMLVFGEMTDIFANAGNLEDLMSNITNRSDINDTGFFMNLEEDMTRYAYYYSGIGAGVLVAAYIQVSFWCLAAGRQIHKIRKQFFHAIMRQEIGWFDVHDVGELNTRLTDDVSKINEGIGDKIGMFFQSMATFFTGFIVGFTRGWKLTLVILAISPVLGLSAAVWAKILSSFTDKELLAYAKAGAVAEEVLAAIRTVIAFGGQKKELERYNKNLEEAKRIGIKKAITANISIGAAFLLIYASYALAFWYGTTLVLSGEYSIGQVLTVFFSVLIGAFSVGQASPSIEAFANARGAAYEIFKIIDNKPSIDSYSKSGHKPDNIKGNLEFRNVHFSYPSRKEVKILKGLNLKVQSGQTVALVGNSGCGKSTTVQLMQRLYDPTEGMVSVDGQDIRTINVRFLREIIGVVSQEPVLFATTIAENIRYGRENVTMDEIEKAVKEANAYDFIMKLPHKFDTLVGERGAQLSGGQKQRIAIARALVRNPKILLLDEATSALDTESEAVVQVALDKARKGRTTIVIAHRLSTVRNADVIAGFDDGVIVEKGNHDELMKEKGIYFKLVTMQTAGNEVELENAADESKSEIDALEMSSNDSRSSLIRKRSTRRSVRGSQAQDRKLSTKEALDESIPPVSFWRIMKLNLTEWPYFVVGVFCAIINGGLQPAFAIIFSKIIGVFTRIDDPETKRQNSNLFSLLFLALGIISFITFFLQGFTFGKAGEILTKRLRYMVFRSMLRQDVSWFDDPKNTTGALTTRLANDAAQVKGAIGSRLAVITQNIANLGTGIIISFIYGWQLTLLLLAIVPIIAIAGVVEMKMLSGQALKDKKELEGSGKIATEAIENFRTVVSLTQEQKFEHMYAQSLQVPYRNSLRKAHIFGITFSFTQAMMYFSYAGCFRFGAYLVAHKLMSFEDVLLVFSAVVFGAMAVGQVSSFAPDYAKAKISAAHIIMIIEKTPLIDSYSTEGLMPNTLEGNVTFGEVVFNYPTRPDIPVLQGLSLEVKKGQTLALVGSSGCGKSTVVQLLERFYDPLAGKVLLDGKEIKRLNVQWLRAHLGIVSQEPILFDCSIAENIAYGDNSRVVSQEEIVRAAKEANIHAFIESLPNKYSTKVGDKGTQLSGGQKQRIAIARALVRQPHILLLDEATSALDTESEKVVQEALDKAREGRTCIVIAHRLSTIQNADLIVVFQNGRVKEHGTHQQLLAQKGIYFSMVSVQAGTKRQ

[11] = test system: NCI-H292; test: Induction of apoptosis in human NCI-H292 cells at 10 uM after 24 hrs using annexin V by flow cytometry; assay type: functional, cell-based
[12] = Reversal of P-gp-mediated resistance to cisplatin in human SW620/AD300 cells assessed as reduction in doxorubin IC50 at 2 uM after 72 hrs by SRB assay; assay type: cell-based; details: SW620/AD300, 72 h
[13] = test system: NCI-H460; test: Induction of apoptosis in human NCI-H460 cells at 10 uM after 24 hrs using annexin V by flow cytometry; assay type: functional, cell-based
[14] = test system: NCI-H292; test: Induction of apoptosis in human NCI-H292 cells at 10 uM after 24 hrs using annexin V by flow cytometry in presence of 1 uM gefitinib; assay type: functional, cell-based
[15] = Reversal of P-gp-mediated resistance to cisplatin in human SW620 cells assessed as reduction in doxorubin IC50 at 2 uM after 72 hrs by SRB assay; assay type: cell-based; details: SW-620, 72 h
[16] = Reversal of P-gp-mediated resistance to doxorubicin in human SW620/AD300 cells assessed as reduction in doxorubin IC50 at 2 uM after 72 hrs by SRB assay; assay type: cell-based; details: SW620/AD300, 72 h
[17] = target: T1, ATP-dependent translocase ABCB1; test: Inhibition of P-gp in human SW620/AD300 cells assessed as reduction in rhodamine 123 efflux at 50 uM by flow cytometry; assay type: cell-based; details: sw620/ad300, 50 µM
[18] = test system: NCI-H460; test: Induction of apoptosis in human NCI-H460 cells at 10 uM after 24 hrs using annexin V by flow cytometry in presence of 1 uM gefitinib; assay type: functional, cell-based
[19] = Reversal of P-gp-mediated resistance to cisplatin in human SW620 cells assessed as reduction in doxorubin IC50 at 10 uM after 72 hrs by SRB assay; assay type: cell-based; details: SW-620, 72 h
[20] = test system: NCI-H460; test: Induction of apoptosis in human NCI-H460/Vbl cells at 10 uM after 24 hrs using annexin V by flow cytometry in presence of 1 uM gefitinib; assay type: functional, cell-based
[21] = Reversal of P-gp-mediated resistance to doxorubicin in human SW620 cells assessed as reduction in doxorubin IC50 at 2 uM after 72 hrs by SRB assay; assay type: cell-based; details: SW-620, 72 h
[22] = Reversal of P-gp-mediated resistance to doxorubicin in human SW620 cells assessed as reduction in doxorubin IC50 at 400 nM after 72 hrs by SRB assay; assay type: cell-based; details: SW-620, 72 h
[23] = test system: SW-620; test: Reversal of P-gp-mediated resistance assessed as ratio of doxorubicin IC50 for human SW620/AD300 cells to doxorubicin IC50 for human SW620 cells in presence of compound at 400 nM; assay type: cell-based
[24] = Reversal of P-gp-mediated resistance to doxorubicin in human SW620/AD300 cells assessed as reduction in doxorubin IC50 at 400 nM after 72 hrs by SRB assay; assay type: cell-based; details: SW620/AD300, 72 h

## CO[C@H]1[C@@H](O)[C@H](O[C@@H]2[C@@H](C)O[C@@H](O[C@H]3CC[C@@]4(C)[C@@H](CC[C@@]56O[C@@]57CC[C@H](C(C)=O)[C@@]7(C)[C@H](O)[C@@H](O)[C@H]46)C3)C[C@H]2OC)O[C@H](C)[C@H]1O[C@@H]1O[C@H](CO)[C@@H](O)[C@H](O)[C@H]1O
[1]
  pIC50: 4.61

## C#Cc1cccc(Nc2ncnc3cc(OCCOC)c(OCCOC)cc23)c1 [ERLOTINIB]
[2]
  pIC50: 6.00
[3]
  pIC50: 5.02
[4]
  pIC50: 4.67

## CO[C@H]1[C@@H](O)[C@H](O[C@@H]2[C@@H](C)O[C@@H](O[C@H]3CC[C@@]4(C)[C@@H](CC[C@@]56O[C@@]57CC[C@H](C(C)=O)[C@@]7(C)[C@H](O)[C@@H](OC(C)=O)[C@H]46)C3)C[C@H]2OC)O[C@H](C)[C@H]1O
[1]
  pIC50: 4.63

## COc1cccc2c1C(=O)c1c(O)c3c(c(O)c1C2=O)C[C@@](O)(C(=O)CO)C[C@@H]3O[C@H]1C[C@H](N)[C@H](O)[C@H](C)O1 [DOXORUBICIN]
[5]
  pIC50: 6.77
[6]
  Ratio IC50: 166
[7]
  pIC50: 4.55

## CCC(C)C(=O)O[C@@H]1[C@@H](OC(C)=O)[C@]2(C)[C@@H](C(C)=O)CC[C@@]23O[C@]32CC[C@H]3CC(=O)CC[C@]3(C)[C@@H]12 (stereo not given in full)
[8]
  Activity: inactive
[9]
  pIC50: 4.99
[10]
  inhibition (INH): Dose-dependent effect
[11]
  Activity: inactive
[12]
  pIC50: 4.92
[13]
  Activity: inactive
[14]
  Activity: Active
[15]
  pIC50: 4.94
[16]
  pIC50: 5.68
[17]
  inhibition (INH): Active
[1]
  pIC50: 6.07
[18]
  Activity: Active
[19]
  pIC50: 5.03
[20]
  Activity: Active
[21]
  pIC50: 6.96

## C/C=C(\C)C(=O)O[C@@H]1[C@@H](O)[C@]2(C)[C@@H](C(C)=O)CC[C@@]23O[C@]32CC[C@H]3C[C@@H](O[C@H]4C[C@@H](OC)[C@H](O[C@@H]5O[C@H](C)[C@@H](O[C@@H]6O[C@H](CO)[C@@H](O)[C@H](O)[C@H]6O)[C@@H](OC)[C@H]5O)[C@@H](C)O4)CC[C@]3(C)[C@@H]12
[1]
  pIC50: 4.62

## CO[C@H]1[C@@H](O)[C@H](O[C@@H]2[C@@H](C)O[C@@H](O[C@H]3CC[C@@]4(C)[C@@H](CC[C@@]56O[C@@]57CC[C@H](C(C)=O)[C@@]7(C)[C@H](OC(C)=O)[C@@H](OC(=O)c5ccccc5)[C@H]46)C3)C[C@H]2OC)O[C@H](C)[C@H]1O[C@@H]1O[C@H](CO)[C@@H](O[C@@H]2O[C@H](CO)[C@@H](O)[C@H](O)[C@H]2O)[C@H](O)[C@H]1O
[1]
  pIC50: 4.57

## C/C=C/C[C@@H](C)C(=O)[C@H]1C(=O)N[C@@H](C(C)C)C(=O)N(C)CC(=O)N(C)[C@@H](CC(C)C)C(=O)N[C@@H](C(C)C)C(=O)N(C)[C@@H](CC(C)C)C(=O)N[C@@H](C)C(=O)N[C@H](C)C(=O)N(C)[C@@H](CC(C)C)C(=O)N(C)[C@@H](CC(C)C)C(=O)N(C)[C@@H](C(C)C)C(=O)N1C [VALSPODAR]
[22]
  pIC50: 7.00
[23]
  Ratio IC50: 2
[24]
  pIC50: 6.66

## CO[C@H]1[C@@H](O)[C@H](O[C@@H]2[C@@H](C)O[C@@H](O[C@H]3CC[C@@]4(C)[C@@H](CC[C@@]56O[C@@]57CC[C@H](C(C)=O)[C@@]7(C)[C@H](O)[C@@H](OC(=O)c5ccccc5)[C@H]46)C3)C[C@H]2OC)O[C@H](C)[C@H]1O
[1]
  pIC50: 4.63

## C/C=C(\C)C(=O)O[C@@H]1[C@@H](O)[C@]2(C)[C@@H](C(C)=O)CC[C@@]23O[C@]32CC[C@H]3C[C@@H](O[C@H]4C[C@@H](OC)[C@H](O[C@@H]5O[C@H](C)[C@@H](O)[C@@H](OC)[C@H]5O)[C@@H](C)O4)CC[C@]3(C)[C@@H]12
[1]
  pIC50: 4.59
